Patent US8546377B2 (AbbVie Inc., priority 2009, dated 2013)
pEC50: −log10 of the molar value. Like-named read-outs stand apart in the source and are kept apart here.

Tests used:
[1] = target: T1, human serotonin 5-HT2c receptor (Homo sapiens, UniProt P28335); experiment: Human 5-HT2C receptor radioligand binding assay (agonist site, [125I](±)DOI); conditions: membranes of transfected CHO cells, 0.2 nM [125I](±)DOI, 15 minutes at 37° C.
T1 construct: expressed in transfected cells; host or cells: CHO cells (membrane homogenate)
T1 sequence (P28335 33-458): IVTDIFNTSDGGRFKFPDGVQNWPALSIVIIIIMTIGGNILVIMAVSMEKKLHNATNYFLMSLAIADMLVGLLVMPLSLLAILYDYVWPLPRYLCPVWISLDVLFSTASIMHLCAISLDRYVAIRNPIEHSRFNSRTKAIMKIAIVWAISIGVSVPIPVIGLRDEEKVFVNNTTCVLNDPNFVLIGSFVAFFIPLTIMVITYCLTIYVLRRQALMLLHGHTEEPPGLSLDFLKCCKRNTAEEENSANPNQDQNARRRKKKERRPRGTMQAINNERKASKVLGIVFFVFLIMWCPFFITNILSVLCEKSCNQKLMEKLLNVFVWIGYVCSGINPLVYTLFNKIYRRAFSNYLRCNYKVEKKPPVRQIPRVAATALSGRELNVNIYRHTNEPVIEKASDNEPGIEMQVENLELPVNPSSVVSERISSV
Experimental: To determine the effectiveness of compounds having a formula (I), these compounds can be evaluated in a radioligand binding assay for the agonist site of the human serotonin 5-HT2c receptor or in vitro models of cellular function.
(i) Human 5-HT2C Receptor Radioligand Binding Assay
Affinity of compounds for the agonist site of the 5-HT2c receptor in transfected CHO cells was determined in a radioligand binding assay essentially as described by Bryant, H. U., et al., Life Sciences (1996) 59(15), 1259-1268.

5HT2C receptors = target: T2, 5HT2C receptors (Homo sapiens, UniProt P28335); experiment: Human 5-HT2C functional assay in CHO-K1 cells (calcium flux, FLIPR); assay type: cell-based; parameters: expressed in transfected cells; host or cells: CHO-K1 cells; conditions: for EC50: CHO-K1 cells over-expressing 5HT2C, calcium flux, read-out: EC50 (μM), 5-HT2c Agonist Activity
T2 sequence (P28335 33-458): T1 sequence (P28335 33-458)
In short: (§1)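 EC50 came from a 4-parameter logistic fit, with Emax expressed relative to serotonin, of intracellular Ca2+ rises read on FLIPR at 480/530 nm, 25° C, over 3 min. Compounds ran from 10 μM in six 1:10 steps (0.2% DMSO) on serum-starved CHO-K1 transfectants pre-loaded 60 min with Ca4 dye and probenecid.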

5HT2B receptors = target: T3, 5HT2B receptors (Homo sapiens, UniProt P41595); experiment: Human 5-HT2B functional assay in CHO-K1 cells (calcium flux, FLIPR); assay type: cell-based; conditions: for Emax: CHO-K1, read-out: Emax (%), 5-HT2B Agonist Activity; for EC50: CHO-K1 cells over-expressing 5HT2B, calcium flux, read-out: EC50 (μM), 5-HT2B Agonist Activity
T3 construct: expressed in transfected cells; host or cells: CHO-K1 cells
In short: as §1

[2] = CHO-K1, read-out: Emax (%), 5-HT2c Agonist Activity, CHO-K1 cells, percentage relative to the effect of serotonin
[3] = CHO-K1, read-out: Emax (%), 5-HT2c Agonist Activity
[4] = CHO-K1 cells, percentage relative to the effect of serotonin, read-out: Emax (%), 5-HT2c Agonist Activity

T3 sequence (P41595 whole entry): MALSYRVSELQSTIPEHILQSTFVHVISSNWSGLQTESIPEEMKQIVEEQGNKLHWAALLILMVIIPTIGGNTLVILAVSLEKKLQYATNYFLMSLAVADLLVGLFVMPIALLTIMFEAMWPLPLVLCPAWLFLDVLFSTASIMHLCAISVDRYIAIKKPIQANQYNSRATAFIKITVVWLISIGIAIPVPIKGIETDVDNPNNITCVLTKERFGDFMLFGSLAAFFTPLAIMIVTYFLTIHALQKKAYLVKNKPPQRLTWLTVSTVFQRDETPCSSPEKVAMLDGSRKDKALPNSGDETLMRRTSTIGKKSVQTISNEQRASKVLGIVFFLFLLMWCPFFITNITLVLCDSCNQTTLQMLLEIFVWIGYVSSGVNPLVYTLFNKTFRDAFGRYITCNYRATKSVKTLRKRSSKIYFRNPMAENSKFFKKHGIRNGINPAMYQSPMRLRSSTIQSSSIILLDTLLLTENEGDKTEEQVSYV

| Structure (SMILES) | Ki [1] [µM] | pEC50 (5HT2C receptors) | Emax (5HT2C receptors; [2]) [%] | pEC50 (5HT2B receptors) | Emax (5HT2B receptors) [%] | Emax (5HT2C receptors; [3]) [%] | EC50 (5HT2C receptors) [µM] | EC50 (5HT2B receptors) [µM] | Emax (5HT2C receptors; [4]) [%] |
| --- | --- | --- | --- | --- | --- | --- | --- | --- | --- |
| O=C1CC2CNCCN2c2cc(-c3ccccc3Cl)ccc2N1 (stereo not drawn) [Example 8, 10-(2-chlorophenyl)-1,2,3,4,4a,5-hexahydropyrazino[1,2-a][1,5]benzodiazepin-6(7H)-one] | 0.14 | – | – | – | – | – | – | – | – |
| O=C1CC2CNCCN2c2cc(/C=C/c3cccc(F)c3)ccc2N1 (stereo not drawn) [Example 9, 10-[(E)-2-(3-fluorophenyl)vinyl]-1,2,3,4,4a,5-hexahydropyrazino[1,2-a][1,5]benzodiazepin-6(7H)-one] | 0.0032 | – | – | – | – | – | – | – | – |
| O=C1CC2CNCCN2c2ccc(-c3ccc(Cl)cc3)cc2N1 (stereo not drawn) [Example 14, 9-(4-chlorophenyl)-1,2,3,4,4a,5-hexahydropyrazino[1,2-a][1,5]-benzodiazepin-6(7H)-one] | 0.17 | – | – | – | – | – | – | – | – |
| Cc1c(F)ccc2c1OCC[C@H]1CNCCN21 [Example 244] | – | 9.40 | 95 | 7.52 | 15 | – | – | – | – |
| FCCN1CCN2c3cccc(F)c3OCC[C@H]2C1 [Example 245, (4aS)-8-fluoro-3-(2-fluoroethyl)-2,3,4,4a,5,6-hexahydro-1H-pyrazino[2,1-d][1,5]benzoxazepine] | – | – | – | – | 20 | 95 | 0.009 | 0.2 | – |
| Cc1cccc2c1OCC[C@H]1CN(CCF)CCN21 [Example 246, (4aS)-3-(2-fluoroethyl)-8-methyl-2,3,4,4a,5,6-hexahydro-1H-pyrazino[2,1-d][1,5]benzoxazepine] | – | – | – | – | – | 95 | 0.007 | > 10 | – |
| c1cc(-c2ccncc2)c2c(c1)N1CCNC[C@@H]1CCO2 [Example 247, (4aS)-8-(pyridin-4-yl)-2,3,4,4a,5,6-hexahydro-1H-pyrazino[2,1-d][1,5]benzoxazepine] | – | 8.15 | 85 | < 5.00 | – | – | – | – | – |
| c1cncc(-c2cccc3c2OCC[C@H]2CNCCN32)c1 [Example 248, (4aS)-8-(pyridin-3-yl)-2,3,4,4a,5,6-hexahydro-1H-pyrazino[2,1-d][1,5]benzoxazepine] | – | 9.15 | 85 | < 5.00 | – | – | – | – | – |
| c1csc(-c2cccc3c2OCC[C@H]2CNCCN32)c1 [Example 249, (4aS)-8-(2-thienyl)-2,3,4,4a,5,6-hexahydro-1H-pyrazino[2,1-d][1,5]benzoxazepine] | – | – | – | – | – | – | 0.0001 | > 10 | 75 |
| c1cc(-c2ccsc2)c2c(c1)N1CCNC[C@@H]1CCO2 [Example 250, (4aS)-8-(3-thienyl)-2,3,4,4a,5,6-hexahydro-1H-pyrazino[2,1-d][1,5]benzoxazepine] | – | – | – | – | – | – | 0.0001 | > 10 | 95 |
| c1coc(-c2cccc3c2OCC[C@H]2CNCCN32)c1 [Example 251, (4aS)-8-(2-furyl)-2,3,4,4a,5,6-hexahydro-1H-pyrazino[2,1-d][1,5]benzoxazepine] | – | – | – | – | – | – | 0.0001 | > 10 | 90 |
| [2H]c1cccc2c1OCC[C@H]1CNCCN21 [Example 254, (4aS)-(8-^2H)-2,3,4,4a,5,6-hexahydro-1H-pyrazino[2,1-d][1,5]benzoxazepine] | – | 8.30 | 115 | 7.05 | 35 | – | – | – | – |
| c1ccc2c(c1)OCC[C@@H]1CNCCN21 [Example 255, (4aR)-2,3,4,4a,5,6-hexahydro-1H-pyrazino[2,1-d][1,5]benzoxazepine] | – | 9.00 | 95 | 7.05 | 70 | – | – | – | – |
| Fc1ccc2c(c1)OCC[C@@H]1CNCCN21 [Example 256, (4aR)-9-fluoro-2,3,4,4a,5,6-hexahydro-1H-pyrazino[2,1-d][1,5]benzoxazepine] | – | 9.00 | 90 | 7.22 | 80 | – | – | – | – |
| Cc1ccc2c(c1)N1CCNC[C@H]1CCO2 [Example 257, (4aR)-10-methyl-2,3,4,4a,5,6-hexahydro-1H-pyrazino[2,1-d][1,5]benzoxazepine] | – | 9.00 | 90 | 7.70 | 60 | – | – | – | – |
| Fc1ccc2c(c1)N1CCNC[C@H]1CCO2 [Example 258, (4aR)-10-fluoro-2,3,4,4a,5,6-hexahydro-1H-pyrazino[2,1-d][1,5]benzoxazepine] | – | 8.00 | 80 | 8.15 | 80 | – | – | – | – |
| Cc1ccc2c(c1)OCC[C@@H]1CNCCN21 [Example 259, (4aR)-9-methyl-2,3,4,4a,5,6-hexahydro-1H-pyrazino[2,1-d][1,5]benzoxazepine] | – | 8.40 | 100 | 7.00 | 70 | – | – | – | – |
| Clc1ccc2c(c1)OCC[C@@H]1CNCCN21 [Example 260, (4aR)-9-chloro-2,3,4,4a,5,6-hexahydro-1H-pyrazino[2,1-d][1,5]benzoxazepine] | – | 9.52 | 100 | 7.52 | 90 | – | – | – | – |
| Clc1ccc2c(c1)N1CCNC[C@H]1CCO2 [Example 261, (4aR)-10-chloro-2,3,4,4a,5,6-hexahydro-1H-pyrazino[2,1-d][1,5]benzoxazepine] | – | 9.40 | 90 | 7.52 | 70 | – | – | – | – |
| [2H]c1ccc2c(c1)N1CCNC[C@@H]1CCO2 [Example 262, (4aS)-(10-^2H)-2,3,4,4a,5,6-hexahydro-1H-pyrazino[2,1-d][1,5]benzoxazepine] | – | 8.30 | 90 | 6.70 | 15 | – | – | – | – |
| [2H]c1ccc2c(c1)OCC[C@H]1CNCCN21 [Example 263, (4aS)-(9-^2H)-2,3,4,4a,5,6-hexahydro-1H-pyrazino[2,1-d][1,5]benzoxazepine] | – | 8.52 | 95 | 7.05 | 15 | – | – | – | – |
| CC(C)N1CCN2c3ccccc3OCC[C@H]2C1 [Example 264, (4aS)-3-isopropyl-2,3,4,4a,5,6-hexahydro-1H-pyrazino[2,1-d][1,5]benzoxazepine] | – | – | 50 | – | – | – | 0.9 | > 10 | – |
| FCC(CF)N1CCN2c3ccccc3OCC[C@H]2C1 [Example 265, (4aS)-3-(1,3-difluoropropan-2-yl)-2,3,4,4a,5,6-hexahydro-1H-pyrazino[2,1-d][1,5]benzoxazepine] | – | – | – | – | – | 70 | 2 | > 10 | – |
| C[C@@H]1CN2c3ccccc3OCC[C@H]2CN1 [Example 266, (2R,4aS)-2-methyl-2,3,4,4a,5,6-hexahydro-1H-pyrazino[2,1-d][1,5]benzoxazepine] | – | 7.00 | 70 | 6.30 | 15 | – | – | – | – |
| [2H]c1cc2c(cc1[2H])N1CCNC[C@@H]1CCO2 [Example 267, (4aS)-(9,10-^2H2)-2,3,4,4a,5,6-hexahydro-1H-pyrazino[2,1-d][1,5]benzoxazepine] | – | 8.30 | 90 | 6.70 | 20 | – | – | – | – |
| CN1CCN2c3ccccc3OCC[C@@H]2C1 [Example 268, (4aR)-3-methyl-2,3,4,4a,5,6-hexahydro-1H-pyrazino[2,1-d][1,5]benzoxazepine] | – | 8.00 | 95 | 6.70 | 50 | – | – | – | – |
| FCCN1CCN2c3ccccc3OCC[C@@H]2C1 [Example 269, (4aR)-3-(2-fluoroethyl)-2,3,4,4a,5,6-hexahydro-1H-pyrazino[2,1-d][1,5]benzoxazepine] | – | – | – | – | 50 | 90 | 0.09 | 0.6 | – |
| Fc1cccc2c1OCC[C@@H]1CNCCN21 [Example 270, (4aR)-8-fluoro-2,3,4,4a,5,6-hexahydro-1H-pyrazino[2,1-d][1,5]benzoxazepine] | – | 9.05 | 90 | 7.40 | 80 | – | – | – | – |
| C[C@H]1CN2c3ccccc3OCC[C@H]2CN1 [Example 271, (2S,4aS)-2-methyl-2,3,4,4a,5,6-hexahydro-1H-pyrazino[2,1-d][1,5]benzoxazepine] | – | 7.00 | 50 | < 5.00 | – | – | – | – | – |
| Fc1cccc2c1N1CCNC[C@@H]1CCO2 [Example 272, (4aS)-11-fluoro-2,3,4,4a,5,6-hexahydro-1H-pyrazino[2,1-d][1,5]benzoxazepine] | – | 8.30 | 85 | 7.30 | 30 | – | – | – | – |
